Results reported in US5347012A, “Naphthothiopyranone derivatives” (Taisho Pharmaceutical Co., Ltd., priority 1990, dated 1994).

Tested on: Emesis induced by cisplatin
Test: Anti-vomiting effect test: inhibition of cisplatin-induced emesis in suncus
Format: in vivo
Details: 45 min before cisplatin 30 mg/kg i.v., emesises over 2 hours; for % value to control (number of emesises): control = 100%
Description: Emesis induced by cisplatin is known to be inhibited by antagonists at 5-HT3 receptors. The anti-vomiting effect of the compound of the present invention was compared with that of the compound described in Example of Japanese Patent Kokai 2-209876 according to the method of Matsumoto et al [Japanese Journal of Pharmacology, vol. 48, pp. 303-306 (1988)].
The compound obtained in Example 4 (hereinafter referred to as "Compound A") and the compound described in Example 1 of Japanese Patent Kokai 2-209876 (hereinafter referred to as "Compound B") were each suspended in 0.4% aqueous carboxymethylcellulose solution to give test samples.
Group each of six suncus of either sex weighing 40-60 g (male) and 30-50 g (female) were used. Each animal was placed with a chronic intravenous cannula 3 days before vomiting test. The samples prepared above were orally administered in the doses of 0.03-3 mg/kg to each group of the animals. After 45 minutes 30 mg/kg of cisplatin was administered intravenously, and number of emesises was determined for a period of 2 hours. Number of emesises for a period of 2 hours of a control group treated with 0.4% carboxymethylcellulose suspension alone was determined as well.
Number of emesises obtained above was expressed as compared with 100% of the control, and IC50 value was calculated by number of emesises.

With `Cc1nccn1Cc1csc2ccc3ccccc3c2c1=O.Cl` [Compound A, 2-[(2-Methyl-1-imidazolyl)methyl]-1H-naphtho-[2,1-b]thiopyran-1-one hydrochloride] the “% value to control (number of emesises)” value (0.03 mg/kg oral) was 77.8%, the “% value to control (number of emesises)” value (0.3 mg/kg oral) was 17.0% and the “% value to control (number of emesises)” value (3 mg/kg oral) was 4.4%. It also gave an ED50 (oral, doses 0.03-3 mg/kg, read-out: IC50 value (number of emesises)) of 0.0904 mg/kg.
